Measurements: article PMC7895558, “Antiprotozoal Compounds from Urolepis hecatantha (Asteraceae)” (Evidence-based Complementary and Alternative Medicine : eCAM, 2021)
Where “and” joins values, the source holds several entries; their conditions need not be identical. Identical values can stand only once. Like-named read-outs stand apart in the source and are kept apart here.

Experiments:
[1] = system: Trypanosoma cruzi epimastigotes (Tulahuen 2 strain); test: in vitro anti-Trypanosoma cruzi activity (epimastigote growth, absorbance 600 nm); format: cell-based; conditions: for IC50: Trypanosoma cruzi, TULAHUEN, 120 h, read-out: IC50 on T. cruzi epimastigotes
Protocol: (§1) For the anti-Trypanosoma and anti-Leishmania activity assays, we followed the methods described by Aguilera et al., 2019 [15].
For the in vitro anti-Trypanosoma cruzi activity, epimastigotes of the Tulahuen 2 strain (genotype TcVI) grown in an axenic medium (BHI-Tryptose) were used. Cells from a 5–7-day-old culture were inoculated in a fresh culture medium to give an initial concentration of 10^6 cells/mL. The absorbance at 600 nm of the cells in culture was measured every day. On day five, the medium was inoculated with different doses of the compounds (25–0.05 µM) from a stock solution in dimethylsulfoxide (DMSO) (DMSO concentration in the culture medium never exceeded 0.4%). Control parasites were cultivated in medium with 0.4% DMSO v/v. Benznidazole was used as a positive control. At five days, the absorbance of the culture was measured and compared to the control and the IC50 values were calculated for each compound using OriginLab 8.5® sigmoidal regression. Each experiment was done in duplicate, and each concentration was tested in triplicate.

[2] = system: Leishmania infantum promastigotes; test: anti-Leishmania activity (promastigotes, resazurin); format: cell-based; conditions: 48 h, read-out: IC50 on L. infantum promastigotes
Protocol: as §1
Leishmania infantum (MHOM/BR/2002/LPC-RPV) was obtained from Fiocruz (Collection of Oswaldo Cruz Foundation, Rio de Janeiro, Brazil). Promastigotes were cultured as described with some modifications at 28°C in an axenic medium (BHI-Tryptose supplemented with: FBS 10%, hemine 2 × 10^−5 mg/mL, glucose 3.0 × 10^−4 g/mL, streptomycin 2.0 × 10^−4 g/mL, ampicillin 1.3 × 10^−4 g/mL) as a low-cost alternative for Leishmania spp. culture. Assays were performed in 96-well plastic plates using 2 × 10^6 promastigotes per well. Compounds were dissolved in DMSO. Different serial dilutions (25–0.05 µM) of the compounds with a final volume up to 200 µL were added. After 48 h at 28°C, 20 µL of a 2 mM resazurin solution was added, and the oxidation-reduction was quantified at 570 and 600 nm. The resazurin solution was prepared at 2.5 mM in phosphate-buffered solution (PBS), pH 7.4, and filtered through 0.22 µm before use. Resazurin sodium salt was obtained from Sigma-Aldrich (St. Louis, MO, USA) and stored at 4°C protected from light. Glucantime was used as a positive control. The efficacy of each compound was estimated by calculating the IC50 values using OriginLab 8.5® sigmoidal regression. Each antiproliferative experiment was done in duplicate, and each concentration was tested in triplicate.

[3] = cytotoxicity assay (MTT); format: cell-based; conditions: mouse
Protocol: The cytotoxicity of the dewaxed dichloromethane extract of U. hecatantha and the isolated compounds was evaluated according to the method described by Aguilera et al., 2019 [15]. The J774.1 murine macrophages (ATCC, USA) were grown in a DMEM culture medium containing 4 mM L-glutamine and supplemented with 10% FCS. Cells were seeded in a 96-well plate (5.00 × 10^4 cells in 200 µL culture medium) and incubated at 37°C in a 5% CO2 atmosphere for 48 h, to allow cell adhesion before drug testing. Afterwards, cells were exposed for 48 h to the compounds (25–400 µM) or the vehicle for control (medium with 0.4% DMSO v/v), and additional control (cells in medium) were used in each test. Cell viability was then assessed by measuring the mitochondria-dependent reduction of MTT [3-(4,5-dimethylthiazol-2-yl)-2,5-diphenyltetrazolium bromide] to formazan. For this purpose, MTT in sterile PBS (containing 0.2% glucose), pH 7.4, was added to the macrophages to achieve a final concentration of 0.1 mg/mL, and the cells were incubated at 37°C for 3 h. After removing the medium, formazan crystals were dissolved in 180 µL of DMSO and 20 µL of MTT buffer (0.1 M glycine, 0.1 M NaCl, 0.5 mM EDTA, pH 10.5), and the absorbance at 560 nm was measured. The CC50 was defined as the drug concentration at which 50% of the cells were viable, relative to the control (no drug added), and was determined using OriginLab 8.5® sigmoidal regression (% of viable cells compared to the logarithm of the compound concentration). Tests were performed in triplicate.

[4] = system: Trypanosoma brucei rhodesiense trypomastigotes; conditions: cited from earlier work
[5] = system: L6-cell line from rat-skeletal myoblasts; set-up: method as in PMID 29244495; conditions: read-out: CC50 on L6 cells; cited from earlier work
[6] = Leishmania infantum, promastigotes

Row | IC50 ([1]; epimastigotes, 5 days) | Compound | IC50 [2, 6] | CC50 at 48 h ([3]; J774.1 murine macrophages) | further results
1 | 7 ± 2 µM | O=C(Cn1ccnc1[N+](=O)[O-])NCc1ccccc1 [benznidazole, reference compound] | – | – | –
2 | > 25 µM | COc1cc(-c2oc3cc(O)c(OC)c(O)c3c(=O)c2OC)ccc1O [compound 2, jaceidin] | > 25 µM | > 25 µM | –
3 | 18 µM and 7.6 µg/mL | C=C1C(=O)O[C@@H]2/C=C(\C)[C@@H](O)C/C=C(\C)C[C@@H](OC(=O)/C(=C/CO)COC(C)=O)[C@@H]12 [compound 3, santhemoidin C] | 19 µM and 8 µg/mL | > 15 µM | –

The remaining lines, values behind:

Row | Compound | IC50 ([1]; epimastigotes, 5 days) | IC50 [2, 6] | CC50 at 48 h ([3]; J774.1 murine macrophages) | further results
4 | C=C(C)c1cc2cc(C(C)=O)c(O)cc2o1 [compound 1, euparin] | – | – | – | IC50 [1]: > 25 µM; IC50 ([2]; Leishmania infantum): 18 µM and 3.9 µg/mL; CC50 at 48 h ([3]; murine macrophages): > 25 µM
5 | C=C1C(=O)O[C@@H]2/C=C(/C)[C@@H](OC(C)=O)C/C=C(\C)C[C@@H](OC(=O)/C(=C/CO)CO)[C@@H]12 [compound 4, eucannabinolide] | 10 µM and 4.2 µg/mL | > 25 µM | – | selectivity index (SI) on T. cruzi ([1]; macrophage CC50 versus T. cruzi epimastigote IC50): 1.5; CC50 ([3]; murine macrophages, 48 h): 15 µM; IC50 ([4]; loaded onto polylactic acid nanoparticles, target not restated in the sentence, read-out: free drug equivalent IC50): 3320 nM; IC50 ([4]; read-out: IC50 against Trypanosoma brucei rhodesiense trypomastigotes): 1100 ± 100 nM; CC50 [5]: 7.8 ± 0.8 µM
6 | Glucantime [reference compound] | – | – | – | IC50 ([2]; promastigotes): 26 ± 9 µM
